Source: patent US20240109912A1, “TRICYCLIC PYRIMIDINES AS CYCLIN-DEPENDENT KINASE 7 (CDK7) INHIBITORS” (JANSSEN PHARMACEUTICA NV, priority 2020, published 2024)
Values joined by “and” are separate entries in the source; they are usually repeats but may differ in a detail not shown here. Identical values can stand only once. Like-named read-outs stand apart in the source and are kept apart here.

Experiments:
[1] = molecular target: CDK7/cyclinH/MAT1 trimeric complex (Homo sapiens (Human), UniProt P50613); assay: In vitro CDK7 assay, potency of irreversible covalent inhibitors (kinact/KI)
[2] = test system: RNA polymerase II Serine 5 phosphorylation in A549 cells overexpressing CDK7 mutant (C312S); assay: Imaging-based cellular RNA PolII Ser5 phosphorylation assay in A549 cells overexpressing CDK7-mutant (C312S); assay type: cell-based, human; conditions: for IC50: Homo sapiens, A549, A549 cells overexpressing CDK7 mutant (C312S), read-out: CDK7_ A549 mutant hCDK7(pIC50) (converted); for CDK7_ A549 mutant hCDK7(pIC50): A549 cells overexpressing CDK7 mutant (C312S)
Protocol: Data were calculated and analyzed in Phaedra.
From this an IC50 value can be obtained.
In parallel this assay was performed in A549 cells overexpressing CDK7-mutant (C312S) to evaluate the effect of the covalent bond on potency and to screen for potential off-target effects. Mutation of Cysteine to Serine (C312S), a less nucleophilic amino acid, prevents CDK7 inhibitors from covalently binding to CDK7 and from inhibiting CDK7 activity in an irreversible manner. A stably transduced A549 cell pool was generated that overexpresses CDK7 mutant (C312S), but also expresses endogenous CDK7-WT. Covalent binders targeting the cysteine at position 312 will show a shift in potency in A549 cells overexpressing mutant C312S CDK7.

[3] = test system: RNA polymerase II Serine 5 phosphorylation (CDK7) in A549 cells
[4] = CDK7 (20 nM enz.) (KI, μM), 20 nM enz.
[5] = read-out: CDK7 (20 nM enz.) (kinact, s^−1), 20 nM enz.
[6] = read-out: CDK7 (20 nM enz.) (kinact/ KI, M^−1*s^−1), 20 nM enz.

Sequence of CDK7/cyclinH/MAT1 trimeric complex (P50613 whole entry): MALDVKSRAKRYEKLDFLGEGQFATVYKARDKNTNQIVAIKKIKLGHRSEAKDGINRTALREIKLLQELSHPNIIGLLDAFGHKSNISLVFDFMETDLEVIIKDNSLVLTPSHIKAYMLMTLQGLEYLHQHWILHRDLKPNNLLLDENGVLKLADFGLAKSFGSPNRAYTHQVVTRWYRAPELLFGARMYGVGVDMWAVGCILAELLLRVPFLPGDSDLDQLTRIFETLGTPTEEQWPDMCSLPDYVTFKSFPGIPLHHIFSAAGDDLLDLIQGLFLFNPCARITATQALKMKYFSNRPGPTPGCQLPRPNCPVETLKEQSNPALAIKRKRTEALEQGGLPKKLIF
Sequence of CDK7/cyclinH/MAT1 trimeric complex (P51946 whole entry partner): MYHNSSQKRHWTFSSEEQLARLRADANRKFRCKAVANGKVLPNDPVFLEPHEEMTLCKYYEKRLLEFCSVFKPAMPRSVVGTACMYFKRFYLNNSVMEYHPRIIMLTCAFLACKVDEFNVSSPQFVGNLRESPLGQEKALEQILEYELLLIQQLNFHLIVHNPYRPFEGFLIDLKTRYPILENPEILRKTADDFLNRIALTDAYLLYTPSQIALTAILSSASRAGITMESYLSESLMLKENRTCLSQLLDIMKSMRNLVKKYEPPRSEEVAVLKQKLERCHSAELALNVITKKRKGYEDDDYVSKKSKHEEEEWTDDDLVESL
Sequence of CDK7/cyclinH/MAT1 trimeric complex (P51948 whole entry partner): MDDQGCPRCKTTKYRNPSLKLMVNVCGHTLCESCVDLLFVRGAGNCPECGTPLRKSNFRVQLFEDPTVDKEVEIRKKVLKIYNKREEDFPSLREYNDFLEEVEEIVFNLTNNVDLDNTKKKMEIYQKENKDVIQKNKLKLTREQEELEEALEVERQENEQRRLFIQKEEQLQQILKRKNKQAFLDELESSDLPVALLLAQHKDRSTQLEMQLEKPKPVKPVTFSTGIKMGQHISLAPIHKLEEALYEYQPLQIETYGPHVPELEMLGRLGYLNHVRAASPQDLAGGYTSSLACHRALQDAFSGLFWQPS

SMILES | Ki ([1]; CDK7 (KI(μM)), Table B) [µM] | kinact ([1]; read-out: CDK7 (kinact, s^−1), Table B) [s⁻¹] | kinact/KI ([1]; read-out: CDK7 (kinact/KI, M^−1*s^−1), Table B) [M⁻¹ s⁻¹] | IC50 [2] [nM] | IC50 [3] | Ki [1, 4] | kinact [1, 5] [s⁻¹] | kinact/KI [1, 6] [M⁻¹ s⁻¹] | CDK7 (20 nM enz.) (kinact, s^−1) ([1]; 20 nM enz.) [s⁻¹] | CDK7 (20 nM enz.) (kinact/ KI, M^−1*s^−1) ([1]; 20 nM enz.) [M⁻¹ s⁻¹] | CDK7_ A549 mutant hCDK7(pIC50) [2] | CDK7 (20 nM enz.) (kobs/[I], M^−1*s^−1) ([1]; 20 nM enz.) [M⁻¹ s⁻¹]
C=CC(=O)N1CC(N2CC[C@H](c3ccc4c(c3)Nc3ncnc(N5CCOCC5)c3CO4)C2)C1 (single isomer, unassigned) [compound 9] | 0.72 | 0.000216 | 306 | > 10000 | 2090 nM | – | – | – | – | – | – | –
C=CC(=O)N1CC[C@H](N2CCC(c3cc(F)c4c(c3)Nc3ncnc(N5CCOCC5)c3CO4)CC2)C1 (single isomer, unassigned) [compound 50] | – | – | – | > 10000 | 200 nM | 0.302 µM | 7.72e-05 | 256 | – | – | – | –
C=CC(=O)N1CC[C@@H](N2CCC(c3cc(F)c4c(c3)Nc3ncnc(N5CCOCC5)c3CO4)CC2)C1 (single isomer, unassigned) [compound 51] | – | – | – | > 10000 | 324 nM | 0.643 µM | 8.79e-05 | 137 | – | – | – | –
C=CC(=O)N1CC[C@H](N2CC(c3cc(F)c4c(c3)Nc3ncnc(N5CCOCC5)c3CO4)C2)C1 (single isomer, unassigned) [compound 54] | – | – | – | > 10000 | 1050 nM | 1.36 µM | 7.77e-05 | 57.2 | – | – | – | –
C=CC(=O)N1CC[C@@H](N2CC(c3cc(F)c4c(c3)Nc3ncnc(N5CCOCC5)c3CO4)C2)C1 (single isomer, unassigned) [compound 55] | – | – | – | > 10000 | 933 nM | 1.04 µM | 6.83e-05 | 65.7 | – | – | – | –
C=CC(=O)N1CC(N2CCC(c3ccc4c(c3)Nc3ncnc(N5CCOCC5)c3[C@@H](C)O4)CC2)C1 (single isomer, unassigned) [compound 56] | – | – | – | > 10000 | 3240 nM | 4.2 µM | 8.48e-05 | 20.2 | – | – | – | –
C=CC(=O)N1CC(N2CCC(c3ccc4c(c3)Nc3ncnc(N5CCOCC5)c3[C@H](C)O4)CC2)C1 (single isomer, unassigned) [compound 57] | – | – | – | > 10000 | 263 nM | 0.0876 µM | 7.7e-05 | 879 | – | – | – | –
C=CC(=O)N1CC[C@H](N2CC(c3cc4c(c(C)n3)OCc3c(ncnc3N3CCS(=O)(=O)CC3)N4)C2)C1 (single isomer, unassigned) [compound 78] | – | – | – | > 10000 | 5370 nM | 0.168 µM | 3.85e-05 | 229 | – | – | – | –
C=CC(=O)N1CC[C@@H](N2CC(c3cc4c(c(C)n3)OCc3c(ncnc3N3CCS(=O)(=O)CC3)N4)C2)C1 (single isomer, unassigned) [compound 79] | – | – | – | > 10000 | 4570 nM | 0.189 µM | 3.93e-05 | 209 | – | – | – | –
C=CC(=O)N1CC(N2CCC(c3cc4c(cn3)O[C@H](C)c3c(ncnc3N3CCOCC3)N4)CC2)C1 (single isomer, unassigned) [compound 83] | – | – | – | – | 138 nM | 0.059 µM | – | – | 2.22e-05 | 376.933 | <5.4 | –
C=CC(=O)N1CC(N2CC(c3cc(C)c4c(c3)Nc3ncnc(-c5cnn(C)c5)c3[C@@H](C)O4)C2)C1 (single isomer, unassigned) [compound 109] | – | – | – | > 10000 | 363 nM | 0.13 µM | 4.5e-05 | 345 | – | – | – | –
C=CC(=O)N1CC[C@H](N2CC(c3cc(C)c4c(c3)Nc3ncnc(N5CCS(=O)(=O)CC5)c3[C@H](C)O4)C2)C1 (single isomer, unassigned) [compound 116] | – | – | – | > 10000 | 191 nM and 269 nM | 0.3 µM and 0.189 µM | 4.57e-05 | 152 | 3.89e-05 | 206.471 | <5 | –
C=CC(=O)N1CC[C@@H](N2CC(c3cc(C)c4c(c3)Nc3ncnc(N5CCS(=O)(=O)CC5)c3[C@H](C)O4)C2)C1 (single isomer, unassigned) [compound 118] | – | – | – | > 10000 | 204 nM and 339 nM | 0.28 µM and 0.281 µM | 4.2e-05 | 150 | 5.02e-05 | 179.017 | <5 | –
C=CC(=O)N1CC[C@H](N2CC(c3cc(C)c4c(c3)Nc3ncnc(N5CCS(=O)(=O)CC5)c3[C@@H](C)O4)C2)C1 (single isomer, unassigned) [compound 121] | – | – | – | – | 28.2 nM and ~31.6 nM | – | – | – | – | 611.255 | <5 | 1089.23
CC#CC(=O)N1CC(N2CCC(c3cc4c(c(C)n3)O[C@@H](C)c3c(ncnc3N3CCS(=O)(=O)CC3)N4)CC2)C1 (single isomer, unassigned) [compound 140] | – | – | – | > 10000 | 3160 nM | 2.57 µM | 8.1e-05 | 31.5 | – | – | – | –
CC#CC(=O)N1CC(N2CC(c3cc(C)c4c(c3)Nc3ncnc(N5CCS(=O)(=O)CC5)c3CO4)C2)C1 [compound 132] | – | – | – | > 10000 | 813 nM | – | – | – | – | – | – | –
CC#CC(=O)N1CC[C@@H](N2CC(c3cc(C)c4c(c3)Nc3ncnc(N5CCS(=O)(=O)CC5)c3[C@@H](C)O4)C2)C1 [compound 141] | – | – | – | – | 162 nM | – | – | – | – | – | <5 | –
CC#CC(=O)N1CC[C@H](N2CC(c3cc(C)c4c(c3)Nc3ncnc(N5CCS(=O)(=O)CC5)c3[C@@H](C)O4)C2)C1 [compound 142] | – | – | – | – | 355 nM | – | – | – | – | – | <5 | –
